Consider eight compounds from patent US11008333B2, “Crystalline forms of hydrochloride salts of thienopyrimidine compound” (HANMI PHARM. CO., LTD., priority 2015, dated 2021).

A short description of data set [1]: Dynamic vapor sorption (DVS), water absorption / hygroscopicity. The format is physicochemical. How it is done:
Dynamic vapor sorption (DVS) analysis was performed in a DVS advantage (Surface measurement system, United Kingdom) analyzer at 25° C. with a relative humidity of 0% to 90%. A sample in an amount of 10 mg was placed into a wire-mesh vapor sorption balance pan and then attached to a DVS advantage dynamic vapor sorption balance via surface measurement systems. Until a stable weight was achieved (99.5% completion of steps), the sample was applied to a ramping profile with a relative humidity of 10% to 90% with a 10% increase of the sample while maintaining the sample in each step. Upon completion of the sorption cycle, the sample was dried using the same process while maintaining a relative humidity of […]. The changes in the sample weight during the adsorption/desorption cycle (repeated 3 times) were recorded and the hygroscopicity of the sample was measured.

Data set [2] can be described thus: Storage under long-term, accelerated and stress testing conditions. The format is physicochemical. The note with it: for expected stability: expectation from DVS.
Data set [3] in a line: Measurement of water solubility (HPLC). The format is physicochemical. The note with it: for pH of solution: solution of the water solubility test, 100 mg/mL in water. As for the experimental part: Specifically, each sample of the polymorphs in an amount of 500 mg was added to 5 mL of water, blended at […] to 25° C. using a Voltamixer, and filtered with a GH Polypro membrane Acrodisc, PALL (pore size: 0.2 μm). The filtrate was diluted with a diluent used for HPLC in a 1:100 ratio to obtain the samples.

Data set [4] has as its system cancer cells induced by a mutation in epidermal growth factor receptor (EGFR) tyrosine kinase. The note with it: disclosed in WO 2011/162515; cited from earlier work.
Data set [5] concerns mutant epidermal growth factor receptor tyrosine kinase. Conditions: disclosed in WO 2011/162515; cited from earlier work.
Setting [6] is: relative humidity of 10% to 90%, 25° C.
[7] abbreviates: accelerated condition (40° C., relative humidity 75%).
Setting [8] is: long-term storage condition (25° C., relative humidity 60%).
Setting [9] is: non-ionic water, 500 mg in 5 mL (conc. of solution 100 mg/mL), 2θ° C. to 25° C., amount dissolved based on compound of Formula 1, HPLC.
Where [10] appears, read: relative humidity of 40% or higher.
Setting [11] is: relative humidity of 10% to 70%.
Where [12] appears, read: relative humidity of 70% or higher.

Values after ≈ are worked out from the molar mass of the structure shown. Read-outs that look alike come from different tables or passages of the source.

One may read the Solubility as how much of the substance goes into solution per volume. `C=CC(=O)Nc1cccc(Oc2nc(Nc3ccc(N4CCN(C)CC4)cc3)nc3ccsc23)c1` [Example 1, N-(3-(2-(4-(4-methylpiperazin-1-yl)phenylamino)thieno[3,2-d]pyrimidin-4-yloxy)phenyl)acrylamide]: in data set [1] (complete range of 0-90% RH), the “reversible water sorption and desorption in DVS” value is given as “about 3%”. Moreover, the “level of water absorption (hygroscopicity) in DVS” value (from here on “level of water absorption”) was 2-3% in data set [1] (setting [6]) and “very low level of change” in data set [1] (relative humidity of 10% to 90%, 25° C., listed as ex. 1). Also, the stability entry in data set [2] (setting [7]), in data set [2] (setting [8]) and in data set [2] (stress testing condition (60° C.)) was “fully stable” each time. Moreover, the “water solubility compared with the other forms” value in data set [3] (comparison of Table 16) was “highest water solubility”. For the same compound, the Solubility in data set [3] (setting [9]) turned out to be 50390 µg/mL (≈ 104 mM). Also, in data set [3], the pH of solution is 1.7.
In the case of `C=CC(=O)Nc1cccc(Oc2nc(Nc3ccc(N4CCN(C)CC4)cc3)nc3ccsc23)c1` [Example 6, N-(3-(2-(4-(4-methylpiperazin-1-yl)phenylamino)thieno[3,2-d]pyrimidin-4-yloxy)phenyl)acrylamide], the “level of water absorption” value in data set [1] (setting [6]) is given as “about 2%”; in data set [1] (relative humidity of 10% to 90%, 25° C., listed as ex. 6) it was “about 2%”. In data set [3] (setting [9]), the Solubility was 570 µg/mL (≈ 1.17 mM). The pH of solution in data set [3] worked out at 4.9.
Regarding `C=CC(=O)Nc1cccc(Oc2nc(Nc3ccc(N4CCN(C)CC4)cc3)nc3ccsc23)c1` [Example 3, N-(3-(2-(4-(4-methylpiperazin-1-yl)phenylamino)thieno[3,2-d]pyrimidin-4-yloxy)phenyl)acrylamide], the “level of water absorption” value is “very low level” in data set [1] (relative humidity of 10% to 40%); “about 9%” in data set [1] (setting [10]); “about 9%” in data set [1] (relative humidity of 40% or higher, listed as ex. 3). The Solubility in data set [3] (setting [9]) turned out to be 7760 µg/mL (≈ 15.9 mM). This compound also showed a pH of solution in data set [3] of 2.1.
On to `C=CC(=O)Nc1cccc(Oc2nc(Nc3ccc(N4CCN(C)CC4)cc3)nc3ccsc23)c1` [Example 4, N-(3-(2-(4-(4-methylpiperazin-1-yl)phenylamino)thieno[3,2-d]pyrimidin-4-yloxy)phenyl)acrylamide], for which the “level of water absorption” value in data set [1] (relative humidity of 10% to 30%) was “very high”; in data set [1] (relative humidity of 10% to 30%, listed as ex. 4), “about 6%”; in data set [1] (setting [10]), “very weak”; in data set [1] (relative humidity of 40% or higher, listed as ex. 4), “very low and constant level”. The Solubility in data set [3] (setting [9]) amounted to 10660 µg/mL (≈ 21.9 mM). Also, in data set [3], the pH of solution came to 1.7.
As for `C=CC(=O)Nc1cccc(Oc2nc(Nc3ccc(N4CCN(C)CC4)cc3)nc3ccsc23)c1` [Comparative Example 1, N-(3-(2-(4-(4-methylpiperazin-1-yl)phenylamino)thieno[3,2-d]pyrimidin-4-yloxy)phenyl)acrylamide], in data set [1] (setting [6]), the “level of water absorption” value is reported as “very high level”. Besides, the expected stability result in data set [2] (setting [7]) and in data set [2] (setting [8]) was “unstable” in each case.
For the compound `C=CC(=O)Nc1cccc(Oc2nc(Nc3ccc(N4CCN(C)CC4)cc3)nc3ccsc23)c1` [Example 7, N-(3-(2-(4-(4-methylpiperazin-1-yl)phenylamino)thieno[3,2-d]pyrimidin-4-yloxy)phenyl)acrylamide], the “level of water absorption” value in data set [1] (setting [11]) is on record as “very low”; in data set [1] (relative humidity of 10% to 90%, 25° C., listed as ex. 7), “about 14%”; in data set [1] (setting [12]), “about 14%”.
For `C=CC(=O)Nc1cccc(Oc2nc(Nc3ccc(N4CCN(C)CC4)cc3)nc3ccsc23)c1` [Example 5, N-(3-(2-(4-(4-methylpiperazin-1-yl)phenylamino)thieno[3,2-d]pyrimidin-4-yloxy)phenyl)acrylamide], the “level of water absorption” value is reported as “very low” in data set [1] (setting [11]); “very low level” in data set [1] (relative humidity of 10% to 70%, listed as ex. 5); “about 7%” in data set [1] (setting [12]); “about 7%” in data set [1] (relative humidity of 70% or higher, listed as ex. 5). Besides, the Solubility in data set [3] (setting [9]) is 420 µg/mL (≈ 0.863 mM). Further, in data set [3], the pH of solution is reported as 4.7.
On to `C=CC(=O)Nc1cccc(Oc2nc(Nc3ccc(N4CCN(C)CC4)cc3)nc3ccsc23)c1` [Formula 1 (amorphous free base), N-(3-(2-(4-(4-methylpiperazin-1-yl)phenylamino)thieno[3,2-d]pyrimidin-4-yloxy)phenyl)acrylamide], for which the “inhibitory activity against growth of cancer cells induced by EGFR mutation, and drug resistance thereof” value in data set [4] is “selective and effective inhibitory activity”. Further, in data set [5], the “inhibitory activity for mutant EGFR tyrosine kinase” value is listed as “selective inhibitory activity”. The Solubility in data set [3] (setting [9]) is 0.1 µg/mL; in data set [3] (water, 20 °C, water, thermodynamic from solid, amorphous free base, read-out: water solubility), under 0.1 µg/mL. This compound also showed a pH of solution in data set [3] of 7.3.
